Source: patent publication US7306804B2 (priority 1998, dated 2007)
“Also recorded” adds a separate entry of the source. Like-named read-outs stand apart in the source and are kept apart here.

Columns and labels:
[1] = test system: PBMCs from normal and HIV-positive individuals; format: cell-based, human
PBMCs = conditions: three monkeys immunized with peptide cocktail; cited from earlier work
[2] = test system: peptide-pulsed autologous EBV-transformed B cells (B-LCL); format: cell-based, human
[3] = test system: anti-peptide antibodies in serum; format: binding, human; parameters: key to Anti-peptide antibody response: +, Positive (titer above control); −, Negative (titer below control)
[4] = test system: HIV envelope protein gp160; conditions: cited from earlier work
[5] = test system: PBMCs from control and HIV-1 infected chimpanzees; format: cell-based, chimpanzee
[6] = test system: anti-peptide antibodies in serum; format: binding, chimpanzee; parameters: key: +, Positive (Titer > 1:100); −, Negative (Titer < 1:100)

Sequence: VYYGVPVWKEA [Peptide 104]
- number of HIV+ individuals with positive proliferative responses ([1]; 17 HIV+ individuals tested): eight of the 17
- T-cell proliferative response ([1]; HIV-positive patient MSf): − (−, Negative (SI < 2.0))
- T-cell proliferative response ([1]; HIV-positive patient MSm): − (−, Negative (SI < 2.0))
- T-cell proliferative response ([1]; HIV-positive patient eight): − (−, Negative (SI < 2.0))
- T-cell proliferative response ([1]; HIV-positive patient eleven): + (+, Positive (Stimulation Index [SI] > 2.0))
- T-cell proliferative response ([1]; HIV-positive patient fifteen): + (+, Positive (Stimulation Index [SI] > 2.0))
- T-cell proliferative response ([1]; HIV-positive patient five): − (−, Negative (SI < 2.0))
- T-cell proliferative response ([1]; HIV-positive patient four): − (−, Negative (SI < 2.0))
- T-cell proliferative response ([1]; HIV-positive patient fourteen): − (−, Negative (SI < 2.0))
- T-cell proliferative response ([1]; HIV-positive patient nine): + (+, Positive (Stimulation Index [SI] > 2.0))
- T-cell proliferative response ([1]; HIV-positive patient one): − (−, Negative (SI < 2.0))
- T-cell proliferative response ([1]; HIV-positive patient seven): − (−, Negative (SI < 2.0))
- T-cell proliferative response ([1]; HIV-positive patient six): + (+, Positive (Stimulation Index [SI] > 2.0))
- T-cell proliferative response ([1]; HIV-positive patient ten): − (−, Negative (SI < 2.0))
- T-cell proliferative response ([1]; HIV-positive patient thirteen): + (+, Positive (Stimulation Index [SI] > 2.0))
- T-cell proliferative response ([1]; HIV-positive patient three): + (+, Positive (Stimulation Index [SI] > 2.0))
- T-cell proliferative response ([1]; HIV-positive patient twelve): + (+, Positive (Stimulation Index [SI] > 2.0))
- T-cell proliferative response ([1]; HIV-positive patient two): + (+, Positive (Stimulation Index [SI] > 2.0))
- T-cell proliferative response ([1]; Normal-1 (HIV-seronegative)): − (−, Negative (SI < 2.0))
- T-cell proliferative response ([1]; Normal-2 (HIV-seronegative)): − (−, Negative (SI < 2.0))
- SI values ([1]; in six of the eight responding HIV+ individuals): above 4.1
- proliferative response of PBMCs (PBMCs): good response
- % Specific lysis at various E:T ratios 12.5:1 ([2]; E:T 12.5:1, PBMCs from patient restimulated 7 days in phytohemagglutinin medium, peptide-pulsed autologous B-LCL): 1.5%
- % Specific lysis at various E:T ratios 25:1 ([2]; E:T 25:1, PBMCs from patient restimulated 7 days in phytohemagglutinin medium, peptide-pulsed autologous B-LCL): 3.7%
- % Specific lysis at various E:T ratios 50:1 ([2]; E:T 50:1, PBMCs from patient restimulated 7 days in phytohemagglutinin medium, peptide-pulsed autologous B-LCL): 9.3%
- % Specific lysis at various E:T ratios 100:1 ([2]; E:T 100:1, PBMCs from patient restimulated 7 days in phytohemagglutinin medium, peptide-pulsed autologous B-LCL): 12.2%
- CTL activity against peptide-pulsed autologous B-LCLs ([2]; PBMCs from LTNP HD restimulated 7 days with PHA): significant CTL activity
- specific lysis of peptide-pulsed target cells ([2]; […], compared with restimulated PBMCs): also observed
- number of HIV+ individuals with positive antibody titers (<1:1280) [3]: three
- Anti-peptide antibody response ([3]; HIV-positive patient MSf): −
- Anti-peptide antibody response ([3]; HIV-positive patient MSm): −
- Anti-peptide antibody response ([3]; HIV-positive patient eight): −
- Anti-peptide antibody response ([3]; HIV-positive patient eleven): −
- Anti-peptide antibody response ([3]; HIV-positive patient fifteen): −
- Anti-peptide antibody response ([3]; HIV-positive patient five): −
- Anti-peptide antibody response ([3]; HIV-positive patient four): +
- Anti-peptide antibody response ([3]; HIV-positive patient fourteen): −
- Anti-peptide antibody response ([3]; HIV-positive patient nine): −
- Anti-peptide antibody response ([3]; HIV-positive patient one): −
- Anti-peptide antibody response ([3]; HIV-positive patient seven): −
- Anti-peptide antibody response ([3]; HIV-positive patient six): +
- Anti-peptide antibody response ([3]; HIV-positive patient ten): −
- Anti-peptide antibody response ([3]; HIV-positive patient thirteen): −
- Anti-peptide antibody response ([3]; HIV-positive patient three): −
- Anti-peptide antibody response ([3]; HIV-positive patient twelve): −
- Anti-peptide antibody response ([3]; HIV-positive patient two): +
- Anti-peptide antibody response ([3]; Normal-1 (HIV-seronegative)): −
- Anti-peptide antibody response ([3]; Normal-2 (HIV-seronegative)): −
- T-cell proliferative response to immunizing peptide and HIV Env protein gp160 ([4]; immunized mice): induced a T-cell response against both the immunizing peptide and the HIV Env protein; also recorded: induced proliferative responses to both the immunizing peptide
- antibodies recognizing recombinant gp160 ([4]; immunized mice): did not produce antibodies that could recognize recombinant gp160
- T-cell proliferation responses ([4]; two F1 hybrid mouse strains (B6C3 F1 and A.SW×Balb/c F1)): relatively good T-cell proliferation responses
- T-cell proliferative response ([5]; chimpanzee 40, control normal): − (−, Negative (SI < 2.0))
- T-cell proliferative response ([5]; chimpanzee 62, HIV-infected): + (+, Positive (Stimulation Index [SI] > 2.0))
- T-cell proliferative response ([5]; chimpanzee 69, HIV-infected): + (+, Positive (Stimulation Index [SI] > 2.0))
- T-cell proliferative response ([5]; chimpanzee 73, control normal): − (−, Negative (SI < 2.0))
- T-cell proliferative response ([5]; chimpanzee 80, HIV-infected): + (+, Positive (Stimulation Index [SI] > 2.0))
- T-cell proliferative response ([5]; chimpanzee 99, HIV-infected): + (+, Positive (Stimulation Index [SI] > 2.0))
- T-cell proliferative response ([5]; chimpanzee 100, HIV-infected): − (−, Negative (SI < 2.0))
- T-cell proliferative response ([5]; chimpanzee 139, HIV-infected): + (+, Positive (Stimulation Index [SI] > 2.0))
- T-cell proliferative response ([5]; chimpanzee 175, HIV-infected): + (+, Positive (Stimulation Index [SI] > 2.0))
- T-cell proliferative response ([5]; chimpanzee 247, HIV-infected): − (−, Negative (SI < 2.0))
- T-cell proliferative response ([5]; chimpanzee 310, HIV-infected): + (+, Positive (Stimulation Index [SI] > 2.0))
- SI values ([5]; in three HIV-infected chimpanzees): above 5.1
- number of HIV-infected chimpanzees with positive proliferative responses (SI>2.0) ([5]; nine HIV-infected chimpanzees tested): seven of the nine
- Anti-peptide antibody response [6]: −
- Anti-peptide antibody response ([6]; chimpanzee 40, control normal): −
- Anti-peptide antibody response ([6]; chimpanzee 73, control normal): −
